Like-named read-outs stand apart in the source and are kept apart here.
Key:
HOP-62 [1] = test: in vitro test at 1.0×10^−5 M, Non-small cell lung cancer cell; format: cell-based; conditions: 1.0×10^−5 molal concentration (M)
HCC-2998 = test: in vitro test at 1.0×10^−5 M, Colorectal cancer cell; format: cell-based; conditions: 1.0×10^−5 molal concentration (M)
HS 578T = test: in vitro test at 1.0×10^−5 M, Breast cancer cell; format: cell-based; conditions: 1.0×10^−5 molal concentration (M)
LOX IMV1 = test: in vitro test at 1.0×10^−5 M, Skin cancer cell; format: cell-based; conditions: 1.0×10^−5 molal concentration (M)
[2] = system: different cancer cell lines; test: in vitro test at 1.0×10^−5 M, summary over the cell lines; format: cell-based; set-up: unit not given here; conditions: 1.0×10^−5 molal concentration (M)
CCRF-CEM [3] = system: CCRF-CEM
HL-60(TB) [4] = system: HL-60(TB)
MOLT-4 [5] = system: MOLT-4
RPMI-8226 [6] = system: RPMI-8226
A549/ATCC [7] = system: A549/ATCC
EKVX [8] = system: EKVX
HOP-62 [9] = system: HOP-62
HOP-92 [10] = system: HOP-92
NCI-H226 [11] = system: NCI-H226
NCI-H23 [12] = system: NCI-H23
NCI-H460 [13] = system: NCI-H460
NCI-H522 [14] = system: NCI-H522
CCRF-CEM [15] = test: cells; conditions: Homo sapiens
HL-60(TB) [16] = test: cells; conditions: Homo sapiens, HL-60
K-562 = test: cells; conditions: Homo sapiens, K562
PC-3 [17] = system: PC-3
MOLT-4 [18] = test: cells; conditions: Homo sapiens, MOLT-4
RPMI-8226 [19] = test: cells; conditions: Homo sapiens, RPMI-8226
A549/ATCC [20] = test: cells; conditions: Homo sapiens, A549
EKVX [21] = test: cells; conditions: Homo sapiens
HOP-92 [22] = test: cells; conditions: Homo sapiens, HOP-92
NCI-H226 [23] = test: cells; conditions: Homo sapiens, NCI-H226
NCI-H23 [24] = test: cells; conditions: Homo sapiens, NCI-H23
NCI-H460 [25] = test: cells; conditions: Homo sapiens, NCI-H460
NCI-H522 [26] = test: cells; conditions: Homo sapiens, NCI-H522
PC-3 [27] = test: cells; conditions: Homo sapiens, PC-3
DU-145 = test: cells; conditions: Homo sapiens, DU-145

Structure (SMILES): CCc1nc2ccc3c(c2[nH]1)C(=O)c1ccccc1C3=O [No. 4, 2-Ethyl-1(3)H-anthra[1,2-d]imidazole-6,11-dione]
- inhibition effect on cancer cell line (Table 2 value) (HOP-62 [1]): 97.73
- inhibition effect on cancer cell line (Table 2 value) (HCC-2998): 67.67
- inhibition effect on cancer cell line (Table 2 value) (HS 578T): −18.58
- inhibition effect on cancer cell line (Table 2 value) (LOX IMV1): 39.98
- Mean [2]: 58.42
- TGI (CCRF-CEM [3]; CCRF-CEM): >1.00E−4
- Percent Growth (CCRF-CEM [3]; Log10 Concentration −4.0): 15%
- Percent Growth (CCRF-CEM [3]; Log10 Concentration −5.0): 51%
- Percent Growth (CCRF-CEM [3]; Log10 Concentration −6.0): 95%
- Percent Growth (CCRF-CEM [3]; Log10 Concentration −7.0): 94%
- Percent Growth (CCRF-CEM [3]; Log10 Concentration −8.0): 103%
- TGI (HL-60(TB) [4]; HL-60(TB)): >1.00E−4
- Percent Growth (HL-60(TB) [4]; Log10 Concentration −4.0): 19%
- Percent Growth (HL-60(TB) [4]; Log10 Concentration −5.0): 43%
- Percent Growth (HL-60(TB) [4]; Log10 Concentration −6.0): 101%
- Percent Growth (HL-60(TB) [4]; Log10 Concentration −7.0): 100%
- Percent Growth (HL-60(TB) [4]; Log10 Concentration −8.0): 100%
- Percent Growth (MOLT-4 [5]; Log10 Concentration −4.0): −1%
- Percent Growth (MOLT-4 [5]; Log10 Concentration −5.0): 49%
- Percent Growth (MOLT-4 [5]; Log10 Concentration −6.0): 93%
- Percent Growth (MOLT-4 [5]; Log10 Concentration −7.0): 96%
- Percent Growth (MOLT-4 [5]; Log10 Concentration −8.0): 98%
- TGI (MOLT-4 [5]; MOLT-4): 9.51E−5
- Percent Growth (RPMI-8226 [6]; Log10 Concentration −4.0): −12%
- Percent Growth (RPMI-8226 [6]; Log10 Concentration −5.0): 12%
- Percent Growth (RPMI-8226 [6]; Log10 Concentration −6.0): 73%
- Percent Growth (RPMI-8226 [6]; Log10 Concentration −7.0): 81%
- Percent Growth (RPMI-8226 [6]; Log10 Concentration −8.0): 97%
- TGI (RPMI-8226 [6]; RPMI-8226): 3.21E−5
- TGI (A549/ATCC [7]; A549/ATCC): >1.00E−4
- Percent Growth (A549/ATCC [7]; Log10 Concentration −4.0): 17%
- Percent Growth (A549/ATCC [7]; Log10 Concentration −5.0): 60%
- Percent Growth (A549/ATCC [7]; Log10 Concentration −6.0): 97%
- Percent Growth (A549/ATCC [7]; Log10 Concentration −7.0): 100%
- Percent Growth (A549/ATCC [7]; Log10 Concentration −8.0): 91%
- TGI (EKVX [8]; EKVX): 9.43E−5
- Percent Growth (EKVX [8]; Log10 Concentration −5.0): 15%
- Percent Growth (EKVX [8]; Log10 Concentration −6.0): 59%
- Percent Growth (EKVX [8]; Log10 Concentration −7.0): 82%
- Percent Growth (EKVX [8]; Log10 Concentration −8.0): 88%
- TGI (HOP-62 [9]; HOP-62): >1.00E−4
- Percent Growth (HOP-62 [9]; Log10 Concentration −4.0): 38%
- Percent Growth (HOP-62 [9]; Log10 Concentration −5.0): 72%
- Percent Growth (HOP-62 [9]; Log10 Concentration −6.0): 87%
- Percent Growth (HOP-62 [9]; Log10 Concentration −7.0): 94%
- Percent Growth (HOP-62 [9]; Log10 Concentration −8.0): 90%
- TGI (HOP-92 [10]; HOP-92): >1.00E−4
- Percent Growth (HOP-92 [10]; Log10 Concentration −4.0): 23%
- Percent Growth (HOP-92 [10]; Log10 Concentration −5.0): 48%
- Percent Growth (HOP-92 [10]; Log10 Concentration −6.0): 64%
- Percent Growth (HOP-92 [10]; Log10 Concentration −7.0): 80%
- Percent Growth (HOP-92 [10]; Log10 Concentration −8.0): 93%
- Percent Growth (NCI-H226 [11]; Log10 Concentration −4.0): 22%
- Percent Growth (NCI-H226 [11]; Log10 Concentration −5.0): 63%
- Percent Growth (NCI-H226 [11]; Log10 Concentration −6.0): 85%
- Percent Growth (NCI-H226 [11]; Log10 Concentration −7.0): 89%
- Percent Growth (NCI-H226 [11]; Log10 Concentration −8.0): 85%
- TGI (NCI-H226 [11]; NCI-H226): >1.00E−4
- Percent Growth (NCI-H23 [12]; Log10 Concentration −4.0): 21%
- Percent Growth (NCI-H23 [12]; Log10 Concentration −5.0): 49%
- Percent Growth (NCI-H23 [12]; Log10 Concentration −6.0): 74%
- Percent Growth (NCI-H23 [12]; Log10 Concentration −7.0): 88%
- Percent Growth (NCI-H23 [12]; Log10 Concentration −8.0): 92%
- TGI (NCI-H23 [12]; NCI-H23): >1.00E−4
- Percent Growth (NCI-H460 [13]; Log10 Concentration −4.0): 2%
- Percent Growth (NCI-H460 [13]; Log10 Concentration −5.0): 25%
- Percent Growth (NCI-H460 [13]; Log10 Concentration −6.0): 74%
- Percent Growth (NCI-H460 [13]; Log10 Concentration −7.0): 82%
- Percent Growth (NCI-H460 [13]; Log10 Concentration −8.0): 84%
- TGI (NCI-H460 [13]; NCI-H460): >1.00E−4
- Percent Growth (NCI-H522 [14]; Log10 Concentration −4.0): 32%
- Percent Growth (NCI-H522 [14]; Log10 Concentration −5.0): 54%
- Percent Growth (NCI-H522 [14]; Log10 Concentration −6.0): 87%
- Percent Growth (NCI-H522 [14]; Log10 Concentration −7.0): 88%
- Percent Growth (NCI-H522 [14]; Log10 Concentration −8.0): 89%
- TGI (NCI-H522 [14]; NCI-H522): >1.00E−4
- GI50 (CCRF-CEM [15]): 10.9 µM
- GI50 (HL-60(TB) [16]): 7.53 µM
- GI50 (K-562): 78.3 µM
- Percent Growth (PC-3 [17]; Log10 Concentration −4.0): 29%
- Percent Growth (PC-3 [17]; Log10 Concentration −5.0): 54%
- Percent Growth (PC-3 [17]; Log10 Concentration −6.0): 93%
- Percent Growth (PC-3 [17]; Log10 Concentration −7.0): 100%
- Percent Growth (PC-3 [17]; Log10 Concentration −8.0): 96%
- TGI (PC-3 [17]; PC-3): >1.00E−4
- GI50 (MOLT-4 [18]): 9.31 µM
- GI50 (RPMI-8226 [19]): 2.42 µM
- GI50 (A549/ATCC [20]): 17.1 µM
- GI50 (EKVX [21]): 1.6 µM
- GI50 (HOP-92 [22]): 7.38 µM
- GI50 (NCI-H226 [23]): 20.8 µM
- GI50 (NCI-H23 [24]): 9.17 µM
- GI50 (NCI-H460 [25]): 3.07 µM
- GI50 (NCI-H522 [26]): 15.4 µM
- GI50 (PC-3 [27]): 14.4 µM
- GI50 (DU-145): 5.62 µM
